Here are results for 26 molecules from patent US8158621B2, “Methods of treating or preventing autoimmune diseases with 2,4-pyrimidinediamine compounds” (Rigel Pharmaceuticals, Inc., priority 2002, dated 2012).

Structures are written as SMILES.

The first test has as its system cultured human mast cells (CHMC). In words: CHMC low cell density ionomycin activation: tryptase assay. The class given is cell-based. The following applies: low cell density; read-out: CHMC Ionomycin Tryptase.
`COc1cc(Nc2ncc(F)c(Nc3ccc4cc[nH]c4c3)n2)cc(OC)c1` [Compound R927089]: the IC50 was greater than 10000 nM.
Take `Fc1cnc(Nc2ccc(Cl)c(Cl)c2)nc1NC1CCC1` [Compound R945394]: the IC50 worked out at 5610 nM.
On the same count and under the same terms, next, `O=C(N[C@H]1CCOc2ccc(Nc3nc(Cl)ncc3F)cc21)OCc1ccccc1` [Compound R950413]: greater than 10000 nM; `CC(C)NC(=O)C1Cc2cc(Nc3ncc(F)c(Nc4ccc(OC(F)(F)F)c(Cl)c4)n3)ccc2O1` (stereo not shown) [Compound R926961]: greater than 10000 nM.
On the same count and under the same terms, next, `CNC(=O)COc1cccc(Nc2ncc(F)c(Nc3ccc(OCCO)c(Cl)c3)n2)c1` [Compound R927047]: greater than 10000 nM; `CC(C)[C@@H]1CC[C@@H](C)C[C@H]1OC(=O)[C@H]1Cc2cc(Nc3ncc(F)c(Nc4ccc5c(c4)NC(=O)C(F)(F)O5)n3)ccc2O1` [Compound R927063]: greater than 10000 nM; `CC1(C)Oc2ccc(Nc3ncc(F)c(Nc4ccc5[nH]ncc5c4)n3)cc2NC1=O` [Compound R935438]: 23000 nM.
On the same count and under the same terms, under `CCN(CC)CCNC(=O)c1ccc(Nc2ncc(F)c(Nc3ccc4c(c3)NC(=O)C(CCO)O4)n2)cc1` (racemic) [Compound R950448] stands 36000 nM; under `O=C(O)C1Cc2cc(Nc3ncc(F)c(Nc4ccc(OC(F)(F)F)c(Cl)c4)n3)ccc2O1` (stereo not shown) [Compound R926957], greater than 10000 nM.
Take `CNC(=O)COc1cccc(Nc2ncc(F)c(Nc3ccc4c(c3)[C@H](NC(=O)OCc3ccccc3)CCO4)n2)c1` [Compound R950418]: the IC50 turned out to be 9090 nM.
For `O=C(COc1cccc(Nc2ncc(F)c(Nc3ccc(N4CCOCC4)cc3)n2)c1)NC1CCC1` [Compound R945362], the IC50 was greater than 10000 nM.
For `CCOC(=O)CCn1ncc2cc(Nc3ncc(F)c(Nc4ccc(OC)c(Cl)c4)n3)ccc21` [Compound R935460], the IC50 was 15600 nM.
Consider `NC1CCCCC1Nc1ncc(F)c(Nc2ccc3c(c2)NC(=O)C(CCO)O3)n1` (stereo not shown) [Compound R950443], for which the IC50 is greater than 10000 nM.
As for `CNC(=O)COc1cccc(Nc2ncc(F)c(Nc3ccc(OCc4ccccc4)c(Cl)c3)n2)c1` [Compound R926966], the IC50 is greater than 10000 nM.
Take `COc1ccc(Nc2ncc(F)c(Nc3ccc4c(c3)OCCO4)n2)cc1Cl` [Compound R927084]: the IC50 is greater than 10000 nM.
For the molecule `Cc1cc(Nc2ncc(F)c(Nc3ccc4c(c3)NC(=O)C(C)(C)O4)n2)cc(C)c1Cl` [Compound R927118], the IC50 turned out to be 3490 nM.
The same measure, in the same setting: under `Fc1cnc(NC2CC2)nc1Nc1ccc(N2CCOCC2)cc1` [Compound R945357] stands greater than 10000 nM; under `COc1cc(Nc2nc(Nc3ccc4cnn(C)c4c3)ncc2F)ccc1F` [Compound R935449], 7800 nM.
Still for that read-out and setting: next, `COc1cc(Nc2nc(Nc3ccc4cn(C)nc4c3)ncc2F)ccc1F` [Compound R935450]: greater than 10000 nM; `COc1c(Cl)cc(Nc2ncc(F)c(Nc3ccc4c(c3)NC(=O)[C@@H](C)O4)n2)cc1Cl` [Compound R908947]: greater than 10000 nM; `Cc1cc(Nc2ncc(F)c(Nc3ccc4c(c3)OCCO4)n2)cc(C)c1Cl` [Compound R927117]: greater than 10000 nM.
Still for that read-out and setting: under `NC1CCOc2ccc(Nc3nc(Nc4ccc5cn[nH]c5c4)ncc3F)cc21` (racemic) [Compound R950423] stands greater than 10000 nM.
`Fc1cnc(NC2CCC2)nc1Nc1ccc(N2CCOCC2)cc1` [Compound R945358]: the IC50 is greater than 10000 nM.
As to `CNC(=O)Nc1cccc(Nc2nc(Nc3cc(C)cc(C)c3)ncc2F)n1` [Compound R927098], the IC50 is greater than 10000 nM.
Same read-out and setting: under `Cn1cc2ccc(Nc3ncc(F)c(Nc4ccc5c(c4)NC(=O)C(C)(C)O5)n3)cc2n1` [Compound R935445] stands 11000 nM; under `COc1ccc(Nc2nc(Nc3cccc(OCC(=O)NCC(O)CO)c3)ncc2F)cc1Cl` (racemic) [Compound R926964], greater than 10000 nM.

The test system is the same in the next test. In words: CHMC low cell density IgE activation: tryptase assay. The class given is cell-based. The following applies: low cell density; read-out: CHMC anti-IgE Tryptase. The gist of the method: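 Supernatant tryptase activity, assayed with substrate for 30 min at room temperature, served as the degranulation measure. Mast cells (1000-1500 per well depending on donor) sat 1 hr at 37° C in MT before a 30 min anti-IgE challenge at 37° C.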
With `COc1cc(Nc2ncc(F)c(Nc3ccc4cc[nH]c4c3)n2)cc(OC)c1` [Compound R927089], the IC50 was 144 nM.
Same read-out and setting: under `Fc1cnc(Nc2ccc(Cl)c(Cl)c2)nc1NC1CCC1` [Compound R945394] stands 1240 nM; under `O=C(N[C@H]1CCOc2ccc(Nc3nc(Cl)ncc3F)cc21)OCc1ccccc1` [Compound R950413], greater than 10000 nM.
Same read-out and setting: under `CC(C)NC(=O)C1Cc2cc(Nc3ncc(F)c(Nc4ccc(OC(F)(F)F)c(Cl)c4)n3)ccc2O1` (stereo not shown) [Compound R926961] stands 1200 nM.
As to `CNC(=O)COc1cccc(Nc2ncc(F)c(Nc3ccc(OCCO)c(Cl)c3)n2)c1` [Compound R927047], the IC50 was 168 nM.
Still for that read-out and setting: next, `CC(C)[C@@H]1CC[C@@H](C)C[C@H]1OC(=O)[C@H]1Cc2cc(Nc3ncc(F)c(Nc4ccc5c(c4)NC(=O)C(F)(F)O5)n3)ccc2O1` [Compound R927063]: 849 nM; `CC1(C)Oc2ccc(Nc3ncc(F)c(Nc4ccc5[nH]ncc5c4)n3)cc2NC1=O` [Compound R935438]: 414 nM.
Same read-out and setting: next, `CCN(CC)CCNC(=O)c1ccc(Nc2ncc(F)c(Nc3ccc4c(c3)NC(=O)C(CCO)O4)n2)cc1` (racemic) [Compound R950448]: 1080 nM; `O=C(O)C1Cc2cc(Nc3ncc(F)c(Nc4ccc(OC(F)(F)F)c(Cl)c4)n3)ccc2O1` (stereo not shown) [Compound R926957]: 1520 nM.
The same measure, in the same setting: next, `CNC(=O)COc1cccc(Nc2ncc(F)c(Nc3ccc4c(c3)[C@H](NC(=O)OCc3ccccc3)CCO4)n2)c1` [Compound R950418]: 1670 nM.
In the case of `O=C(COc1cccc(Nc2ncc(F)c(Nc3ccc(N4CCOCC4)cc3)n2)c1)NC1CCC1` [Compound R945362], the IC50 came to 1570 nM.
On the same count and under the same terms, under `CCOC(=O)CCn1ncc2cc(Nc3ncc(F)c(Nc4ccc(OC)c(Cl)c4)n3)ccc21` [Compound R935460] stands 748 nM.
On the same count and under the same terms, next, `NC1CCCCC1Nc1ncc(F)c(Nc2ccc3c(c2)NC(=O)C(CCO)O3)n1` (stereo not shown) [Compound R950443]: greater than 10000 nM; `CNC(=O)COc1cccc(Nc2ncc(F)c(Nc3ccc(OCc4ccccc4)c(Cl)c3)n2)c1` [Compound R926966]: 539 nM.
The same measure, in the same setting: under `COc1ccc(Nc2ncc(F)c(Nc3ccc4c(c3)OCCO4)n2)cc1Cl` [Compound R927084] stands 466 nM; under `Cc1cc(Nc2ncc(F)c(Nc3ccc4c(c3)NC(=O)C(C)(C)O4)n2)cc(C)c1Cl` [Compound R927118], 65 nM; under `Fc1cnc(NC2CC2)nc1Nc1ccc(N2CCOCC2)cc1` [Compound R945357], greater than 10000 nM.
With `COc1cc(Nc2nc(Nc3ccc4cnn(C)c4c3)ncc2F)ccc1F` [Compound R935449], the IC50 came to 372 nM.
Still for that read-out and setting: under `COc1cc(Nc2nc(Nc3ccc4cn(C)nc4c3)ncc2F)ccc1F` [Compound R935450] stands 494 nM; under `COc1c(Cl)cc(Nc2ncc(F)c(Nc3ccc4c(c3)NC(=O)[C@@H](C)O4)n2)cc1Cl` [Compound R908947], 496 nM; under `Cc1cc(Nc2ncc(F)c(Nc3ccc4c(c3)OCCO4)n2)cc(C)c1Cl` [Compound R927117], 614 nM.
For the molecule `NC1CCOc2ccc(Nc3nc(Nc4ccc5cn[nH]c5c4)ncc3F)cc21` (racemic) [Compound R950423], the IC50 amounted to 50 nM.
The same measure, in the same setting: under `Fc1cnc(NC2CCC2)nc1Nc1ccc(N2CCOCC2)cc1` [Compound R945358] stands greater than 10000 nM; under `CNC(=O)Nc1cccc(Nc2nc(Nc3cc(C)cc(C)c3)ncc2F)n1` [Compound R927098], 1530 nM; under `Cn1cc2ccc(Nc3ncc(F)c(Nc4ccc5c(c4)NC(=O)C(C)(C)O5)n3)cc2n1` [Compound R935445], 184 nM.
The same measure, in the same setting: next, `COc1ccc(Nc2nc(Nc3cccc(OCC(=O)NCC(O)CO)c3)ncc2F)cc1Cl` (racemic) [Compound R926964]: 368 nM.
